Test results published in patent publication US20200190081A1, “META SUBSTITUTED PHENYLPYRAZOLO- AND PHENYLPYRROLO- PYRIDAZINE DERIVATIVES HAVING MULTIMODAL ACTIVITY AGAINST PAIN” (ESTEVE PHARMACEUTICALS, S.A., priority 2016, published 2020).

Columns and labels:
[1] = target: Human α2δ-1 Subunit of Cav2.2 Calcium Channel (Homo sapiens, UniProt P54289); assay: Human α2δ-1 subunit of Cav2.2 calcium channel assay, [3H]-Gabapentin binding; conditions: human α2δ-1 enriched membranes, 15 nM [3H]-Gabapentin
Chain of Human α2δ-1 Subunit of Cav2.2 Calcium Channel (P54289 25-1103): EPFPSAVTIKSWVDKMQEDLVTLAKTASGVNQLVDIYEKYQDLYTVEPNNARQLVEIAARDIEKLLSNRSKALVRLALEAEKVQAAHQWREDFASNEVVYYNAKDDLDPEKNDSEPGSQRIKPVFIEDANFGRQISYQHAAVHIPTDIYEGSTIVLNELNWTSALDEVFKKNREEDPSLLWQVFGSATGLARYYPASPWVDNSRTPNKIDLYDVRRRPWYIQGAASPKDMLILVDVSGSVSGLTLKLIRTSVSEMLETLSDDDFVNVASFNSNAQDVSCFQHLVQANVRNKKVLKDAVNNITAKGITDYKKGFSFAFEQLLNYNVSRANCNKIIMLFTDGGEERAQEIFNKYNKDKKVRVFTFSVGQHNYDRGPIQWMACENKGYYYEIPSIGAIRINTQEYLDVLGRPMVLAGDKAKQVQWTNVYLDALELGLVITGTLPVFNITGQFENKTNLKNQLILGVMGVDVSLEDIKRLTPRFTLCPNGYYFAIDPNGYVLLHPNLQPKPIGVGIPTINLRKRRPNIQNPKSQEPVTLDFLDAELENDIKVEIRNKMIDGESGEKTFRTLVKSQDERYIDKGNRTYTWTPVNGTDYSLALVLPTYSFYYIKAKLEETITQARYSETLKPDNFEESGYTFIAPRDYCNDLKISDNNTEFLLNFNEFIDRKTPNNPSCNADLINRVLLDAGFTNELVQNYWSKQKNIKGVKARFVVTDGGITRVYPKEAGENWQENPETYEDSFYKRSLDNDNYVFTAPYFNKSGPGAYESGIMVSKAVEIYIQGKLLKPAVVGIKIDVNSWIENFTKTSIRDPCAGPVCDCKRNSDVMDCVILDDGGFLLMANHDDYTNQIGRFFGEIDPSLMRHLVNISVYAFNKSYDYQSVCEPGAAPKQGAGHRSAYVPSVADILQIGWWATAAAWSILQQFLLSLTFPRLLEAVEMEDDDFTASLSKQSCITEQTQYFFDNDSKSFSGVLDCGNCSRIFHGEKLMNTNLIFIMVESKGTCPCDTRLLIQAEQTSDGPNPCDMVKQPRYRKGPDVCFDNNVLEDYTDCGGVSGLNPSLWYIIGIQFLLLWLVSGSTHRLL
Protocol: Human α2δ-1 Subunit of Cav2.2 Calcium Channel Assay
Human α2δ-1 enriched membranes (2.5 μg) were incubated with 15 nM of radiolabeled [3H]-Gabapentin in assay buffer containing Hepes-KOH 10 mM, pH 7.4. NSB (non specific binding) was measured by adding 10 μM pregabalin. The binding of the test compound was measured at five different concentrations. After 60 min incubation at 27° C., binding reaction was terminated by filtering through Multiscreen GF/C (Millipore) presoaked in 0.5% polyethyleneimine in Vacuum Manifold Station, followed by 3 washes with ice-cold filtration buffer containing 50 mM Tris-HCl, pH 7.4. Filter plates were dried at 60° C. for 1 hour and 30 μl of scintillation cocktail were added to each well before radioactivity reading. Readings were performed in a Trilux 1450 Microbeta radioactive counter (Perkin Elmer).

[2] = target: Human norepinephrine transporter (NET) (Homo sapiens, UniProt P23975); assay: Binding assay to human norepinephrine transporter (NET), [3H]-Nisoxetin; conditions: human NET enriched membranes, 5 nM [3H]-Nisoxetin
Chain of Human norepinephrine transporter (NET) (P23975 whole entry): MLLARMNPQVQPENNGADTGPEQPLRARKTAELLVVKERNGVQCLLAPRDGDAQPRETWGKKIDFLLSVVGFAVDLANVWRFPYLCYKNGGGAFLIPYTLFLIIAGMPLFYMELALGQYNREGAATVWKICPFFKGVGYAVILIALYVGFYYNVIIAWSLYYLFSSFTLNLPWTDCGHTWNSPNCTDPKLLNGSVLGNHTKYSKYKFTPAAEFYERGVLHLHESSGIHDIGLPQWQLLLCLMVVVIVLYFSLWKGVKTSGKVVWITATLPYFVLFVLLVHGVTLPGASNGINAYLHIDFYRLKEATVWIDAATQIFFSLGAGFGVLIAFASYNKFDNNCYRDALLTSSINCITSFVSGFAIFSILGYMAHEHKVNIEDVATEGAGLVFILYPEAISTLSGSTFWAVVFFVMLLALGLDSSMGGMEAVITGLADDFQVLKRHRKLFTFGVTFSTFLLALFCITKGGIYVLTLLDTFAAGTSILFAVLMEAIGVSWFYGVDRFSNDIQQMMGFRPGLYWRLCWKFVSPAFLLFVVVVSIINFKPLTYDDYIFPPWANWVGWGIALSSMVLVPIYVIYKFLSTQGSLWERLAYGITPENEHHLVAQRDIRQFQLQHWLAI
Protocol: Binding Assay to Human Norepinephrine Transporter (NET).
Human norepinephrine transporter (NET) enriched membranes (5 μg) were incubated with 5 nM of radiolabeled [3H]-Nisoxetin in assay buffer containing 50 mM Tris-HCl, 120 mM NaCl, 5 mM KCl, pH 7.4. NSB (non specific binding) was measured by adding 10 μM of desipramine. The binding of the test compound was measured at five different concentrations. After 60 min incubation at 4° C., binding reaction was terminated by filtering through Multiscreen GF/C (Millipore) presoaked in 0.5% polyethyleneimine in Vacuum Manifold Station, followed by 3 washes with ice-cold filtration buffer containing 50 mM Tris-HCl, 0.9% NaCl, pH 7.4. Filter plates were dried at 60° C. for 1 hour and 30 μl of scintillation cocktail were added to each well before radioactivity reading. Readings were performed in a Trilux 1450 Microbeta radioactive counter (Perkin Elmer).

SMILES | Ki [1] [nM] | Ki [2] [nM]
CNCCC(Oc1cccc(-n2nc3c(N(C)CCO)nnc(C)c3c2C)c1)c1ccccc1F (stereo not shown) [Example 31, 2-((2-(3-(1-(2-fluorophenyl)-3-(methylamino)propoxy)phenyl)-3,4-dimethyl-2H-pyrazolo[3,4-d]pyridazin-7-yl)(methyl)amino)ethanol] | 500 to 5000 | < 100
CNCCC(Oc1cccc(-n2nc3c(N(C)CCCO)nnc(C)c3c2C)c1)c1ccccc1F (stereo not shown) [Example 32, 3-((2-(3-(1-(2-fluorophenyl)-3-(methylamino)propoxy)phenyl)-3,4-dimethyl-2H-pyrazolo[3,4-d]pyridazin-7-yl)(methyl)amino)propan-1-ol] | 500 to 5000 | < 100
CNCCC(Oc1cccc(-n2nc3c(N4CC(OC)C4)nnc(C)c3c2C)c1)c1ccccc1F (stereo not shown) [Example 33, 3-(2-fluorophenyl)-3-(3-(7-(3-methoxyazetidin-1-yl)-3,4-dimethyl-2H-pyrazolo[3,4-d]pyridazin-2-yl)phenoxy)-N-methylpropan-1-amine] | 500 to 5000 | 500 to 1000
CNCCC(Oc1cccc(-n2nc3c(N(C)C)nnc(C)c3c2C)c1)c1nccs1 (stereo not shown) [Example 34, N,N,3,4-Tetramethyl-2-(3-(3-(methylamino)-1-(thiazol-2-yl)propoxy)phenyl)-2H-pyrazolo[3,4-d]pyridazin-7-amine] | < 500 | ≥ 1000
Cc1nnc(N(C)C)c2nn(-c3cccc(OC(CN(C)C)c4ccccc4)c3)c(C)c12 (stereo not shown) [Example 37, 2-(3-(2-(dimethylamino)-1-phenylethoxy)phenyl)-N,N,3,4-tetramethyl-2H-pyrazolo[3,4-d]pyridazin-7-amine] | 500 to 5000 | 100 to 500
CNCCC(Cc1ccccc1)Oc1cccc(-n2nc3c(N(C)C)nnc(C)c3c2C)c1 (stereo not shown) [Example 38, N,N,3,4-tetramethyl-2-(3-((4-(methylamino)-1-phenylbutan-2-yl)oxy)phenyl)-2H-pyrazolo[3,4-d]pyridazin-7-amine] | 500 to 5000 | 100 to 500
CNCC(Oc1cccc(-n2nc3c(N(C)C)nnc(C)c3c2C)c1)c1cccs1 (stereo not shown) [Example 40, N,N,3,4-tetramethyl-2-(3-(2-(methylamino)-1-(thiophen-2-yl)ethoxy)phenyl)-2H-pyrazolo[3,4-d]pyridazin-7-amine] | 500 to 5000 | 500 to 1000
CNCC(Oc1cccc(-n2nc3c(N(C)C)nnc(C)c3c2C)c1)c1ccccc1F (stereo not shown) [Example 41, 2-(3-(1-(2-fluorophenyl)-2-(methylamino)ethoxy)phenyl)-N,N,3,4-tetramethyl-2H-pyrazolo[3,4-d]pyridazin-7-amine] | 500 to 5000 | 100 to 500
Cc1nnc(N(C)C)c2nn(-c3cccc(OC(Cc4ccccc4)CN(C)Cc4ccccc4)c3)c(C)c12 (stereo not shown) [Example 44, 2-(3-((1-(benzyl(methyl)amino)-3-phenylpropan-2-yl)oxy)phenyl)-N,N,3,4-tetramethyl-2H-pyrazolo[3,4-d]pyridazin-7-amine] | ≥ 5000 | ≥ 1000
CNCC(Oc1cccc(-n2nc3c(N(C)C)nnc(C)c3c2C)c1)c1cccnc1 (stereo not shown) [Example 45, N,N,3,4-tetramethyl-2-(3-(2-(methylamino)-1-(pyridin-3-yl)ethoxy)phenyl)-2H-pyrazolo[3,4-d]pyridazin-7-amine] | 500 to 5000 | ≥ 1000
CNC(COc1cccc(-n2nc3c(N(C)C)nnc(C)c3c2C)c1)Cc1ccccc1 (stereo not shown) [Example 47, N,N,3,4-tetramethyl-2-(3-(2-(methylamino)-3-phenylpropoxy)phenyl)-2H-pyrazolo[3,4-d]pyridazin-7-amine] | < 500 | < 100
CNC1(CC(Oc2cccc(-n3nc4c(N(C)C)nnc(C)c4c3C)c2)c2ccccc2)CC1 (stereo not shown) [Example 49, N,N,3,4-tetramethyl-2-(3-(2-(1-(methylamino)cyclopropyl)-1-phenylethoxy)phenyl)-2H-pyrazolo[3,4-d]pyridazin-7-amine] | 500 to 5000 | < 100
Cc1nnc(N(C)C)c2nn(-c3cccc(OC(CCN)c4cccnc4)c3)c(C)c12 (stereo not shown) [Example 50, 2-(3-(3-amino-1-(pyridin-3-yl)propoxy)phenyl)-N,N,3,4-tetramethyl-2H-pyrazolo[3,4-d]pyridazin-7-amine] | 500 to 5000 | ≥ 1000
Cc1nnc(N(C)C)c2nn(-c3cccc(OC(CN(C)C)c4cccnc4)c3)c(C)c12 (stereo not shown) [Example 52, 2-(3-(2-(Dimethylamino)-1-(pyridin-3-yl)ethoxy)phenyl)-N,N,3,4-tetramethyl-2H-pyrazolo[3,4-d]pyridazin-7-amine] | 500 to 5000 | ≥ 1000

Other lines, results leading:

Ki [1] [nM] | Ki [2] [nM] | SMILES
500 to 5000 | < 100 | CNCCC(Oc1cccc(-n2nc3c(N(C)C)nnc(C)c3c2C)c1)c1ccccc1F (stereo not shown) [Example 30, 2-(3-(1-(2-Fluorophenyl)-3-(methylamino)propoxy)phenyl)-N,N,3,4-tetramethyl-2H-pyrazolo[3,4-d]pyridazin-7-amine]
500 to 5000 | < 100 | CNCC(Oc1cccc(-n2nc3c(N(C)C)nnc(C)c3c2C)c1)c1ccccc1 (stereo not shown) [Example 35, N,N,3,4-tetramethyl-2-(3-(2-(methylamino)-1-phenylethoxy)phenyl)-2H-pyrazolo[3,4-d]pyridazin-7-amine]
500 to 5000 | 100 to 500 | CNCCC(Oc1cccc(-n2nc3c(N(C)C)nnc(C)c3c2C)c1)c1ccccc1OC (stereo not shown) [Example 36, 2-(3-(1-(2-methoxyphenyl)-3-(methylamino)propoxy)phenyl)-N,N,3,4-tetramethyl-2H-pyrazolo[3,4-d]pyridazin-7-amine]
500 to 5000 | < 100 | CNCCC(Oc1cccc(-n2nc3c(N(C)C)nnc(C)c3c2C)c1)c1cccc(OC)c1 (stereo not shown) [Example 39, 2-(3-(1-(3-methoxyphenyl)-3-(methylamino)propoxy)phenyl)-N,N,3,4-tetramethyl-2H-pyrazolo[3,4-d]pyridazin-7-amine]
< 500 | 100 to 500 | CNCCC(Oc1cccc(-n2nc3c(N(C)C)nnc(C)c3c2C)c1)c1cccnc1 (stereo not shown) [Example 42, N,N,3,4-tetramethyl-2-(3-(3-(methylamino)-1-(pyridin-3-yl)propoxy)phenyl)-2H-pyrazolo[3,4-d]pyridazin-7-amine]
500 to 5000 | < 100 | CNCC(Oc1cccc(-n2nc3c(N(C)C)nnc(C)c3c2C)c1)c1cccc(F)c1 (stereo not shown) [Example 43, 2-(3-(1-(3-fluorophenyl)-2-(methylamino)ethoxy)phenyl)-N,N,3,4-tetramethyl-2H-pyrazolo[3,4-d]pyridazin-7-amine]
500 to 5000 | 100 to 500 | CNCCC(Oc1cccc(-n2nc3c(N(C)C)nnc(C)c3c2C)c1)c1ccc(OC(F)(F)F)cc1 (stereo not shown) [Example 46, N,N,3,4-tetramethyl-2-(3-(3-(methylamino)-1-(4-(trifluoromethoxy)phenyl)propoxy)phenyl)-2H-pyrazolo[3,4-d]pyridazin-7-amine]
< 500 | 500 to 1000 | CNCCC(Oc1cccc(-n2nc3c(N(C)C)nnc(C)c3c2C)c1)c1cncs1 (stereo not shown) [Example 48, N,N,3,4-tetramethyl-2-(3-(3-(methylamino)-1-(thiazol-5-yl)propoxy)phenyl)-2H-pyrazolo[3,4-d]pyridazin-7-amine]
500 to 5000 | < 100 | CNCCC(Oc1cccc(-n2nc3c(N(C)C)nnc(C)c3c2C)c1)c1cccs1 (stereo not shown) [Example 51, N,N,3,4-Tetramethyl-2-(3-(3-(methylamino)-1-(thiophen-2-yl)propoxy)phenyl)-2H-pyrazolo[3,4-d]pyridazin-7-amine]
